Drawing on paper PMC8161026, “Synthesis and Anticancer Activity Evaluation of 5-[2-Chloro-3-(4-nitrophenyl)-2-propenylidene]-4-thiazolidinones” (Molecules, 2021), this text covers GI50, CC50 and TGI for two compounds.

Molecules are shown by their SMILES.

Assay [1] deals with breast cancer lines MCF-7 and MDA-MB-231. Briefly: MTT cell viability assay, both breast cancer lines. It counts as cell-based. The settings on record: Homo sapiens; MCF-7 and MDA-MB-231, MTT; read-out: GI50 level. The protocol:
In the second stage of the research, Ciminalum-thiazolidinone hybrids were investigated for antitumor activity on the lines of gastric cancer (AGS), human colon cancer (DLD-1), and breast cancers (MCF-7 and MDA-MB-231). The study was performed in the MTT assay according to the method described previously. The studied cancer line was sensitive to the action of the studied compounds that inhibited its growth in micromolar ranges of GI50. The hit compounds that inhibited the growth of all four cancer lines with the lowest GI50 values were [5-[2-chloro-3-(4-nitrophenyl)prop-2-enylidene]-rhodanines 2c, 2d, 2h, and 2i (Table 4).
(Tetrazolium dyes change colour on reduction, which living cells bring about.)

For another assay, the system named is MDA-MB-468. Briefly: NCI DTP 60 cell line screen, SRB.

What is called GI50 is the concentration at which growth is held to half of that of the control. In the case of `O=C(O)CCN1C(=O)/C(=C/C(Cl)=C/c2ccc([N+](=O)[O-])cc2)SC1=S` [Compound 2h, 3-{5-[(Z,2Z)-2-Chloro-3-(4-nitrophenyl)-2-propenylidene]-4-oxo-2-thioxothiazolidin-3-yl}propanoic acid], the GI50 in assay [1] lay within 0.95 to 1.74 µM.
What is called TGI is the concentration giving total growth inhibition. Take `O=C(O)C(Cc1ccccc1)N1C(=O)/C(=C/C(Cl)=C/c2ccc([N+](=O)[O-])cc2)SC1=S` (stereo not shown) [Compound 2j, 2-{5-[(Z,2Z)-2-Chloro-3-(4-nitrophenyl)-2-propenylidene]-4-oxo-2-thioxothiazolidin-3-yl}-3-phenylpropanoic acid]: the GI50 in the assay with MDA-MB-468 (Homo sapiens, MDA-MB-468, 48 h) stood at 1.39 µM. Moreover, the CC50 in the assay with MDA-MB-468 (Homo sapiens, MDA-MB-468, 48 h, read-out: LC50) was determined as 7.71 µM. In the assay on MDA-MB-468 (MDA-MB-468 (Breast Cancer), 48 h, SRB), this compound returned a TGI of 3.28 µM.
